From patent US20070021397A1, “Neurocyte protective agent” (priority 2003, published 2007)

Experiments:
[1] = tested on: cultured rat septal area neurons; experiment: Aβ(1-40) toxicity, LDH leakage from cultured septal area neurons; assay type: cell-based; settings: siRNA 1 μmol/L added 24 h before and immediately before 15 μmol/L Aβ(1-40), 48 h; FIG. 12
Description: Septal area neurons were prepared from embryos (18-day-old embryos) of Wistar rats (Charles River Japan). The septal region (including septal area and basal forebrain) was cut out from embryonic brain and incubated in Ca^2+/Mg^2+-free Hanks' balanced salt solution containing 0.25% trypsin and 0.2 mg/ml DNase I at 37° C. for 15 minutes. […] Cells were plated on 96-well poly-D-lysine-coated culture plates at a concentration of 1.2×10^5 cells/well. The plated cells were cultured in a CO2 incubator (5% CO2, 37° C.). After one day, ⅔ of the medium was exchanged for the above-described DMEM containing 5% fetal calf serum. After three days, ⅔ of the medium was exchanged again for the above-described DMEM containing 5% fetal calf serum. After 6 days, the entire medium was exchanged for the above-described DMEM (this time, Gln is not contained) not containing serum.
As an indicator for cytotoxicity, LDH (lactate dehydrogenase) was measured. […] Forty-eight hours after the addition of Aβ(1-40), lactate dehydrogenase (LDH) activity in the medium was measured. At the same time, cells were solubilized with phosphate buffer (pH 7.4) containing 0.5% Triton X-100, followed by measurement of LDH in cells. […] The data were analyzed by analysis techniques of ANOVA and Welch's test.
LDH (lactate dehydrogenase) was measured as an indicator for cytotoxicity. […] The data were analyzed by ANOVA and Welch's test.

[2] = tested on: rat primary culture neurons; experiment: OGD test, microscopic observation of cell morphology; settings: added before OGD treatment; FIG. 2
[3] = tested on: rat primary culture cerebral cortex neurons; experiment: OGD (oxygen glucose deprivation) test, LDH release; assay type: cell-based; settings: added 12 h before OGD; 0.1, 1.0, 10 μM (galantamine 1.0, 10, 100 μM); FIG. 3
Excerpt: After culturing for 7 days or more, cells were subjected to OGD treatment. […] As an indicator for neurocyte protection effect, ratio of LDH release inhibition was used. […] Therefore, when cells are injured by OGD, LDH flows out from inside of the cells into extracellular solution. In this solution, LDH is present depending on the degree of injury of the cells (cell death). The amount of LDH present in the solution can be determined by adding pyruvic acid and NADH to the solution and measuring the decreasing ratio of NADH with an absorption spectrometer.
Subsequently, rat primary culture neurons were subjected to OGD treatment in the same manner as in the previous test.
Then, their effects on LDH release induced by OGD treatment were tested.

siRNA (ii): double-stranded siRNA of acetylcholinesterase, SEQ ID NO: 3 and SEQ ID NO: 4 (chain 1 GCUGCCUCAAGAAAGUAUCTT; chain 2 GAUACUUUCUUGAGGCAGCTT; chemistry not given here)
protective effect against Aβ(1-40) toxicity (LDH) [1]: inhibit Aβ toxicity

siRNA (i): double-stranded siRNA of acetylcholinesterase, SEQ ID NO: 1 and SEQ ID NO: 2 (chain 1 AAUGUCAGUGACUCUGUUUTT; chain 2 AAACAGAGUCACUGACAUUTT; chemistry not given here)
protective effect against Aβ(1-40) toxicity (LDH) [1]: inhibit Aβ toxicity

COc1cc2c(cc1OC)C(=O)C(CC1CCN(Cc3ccccc3)CC1)C2.Cl (stereo not shown) [Donepezil, 1-benzyl-4-[(5,6-dimethoxy-1-indanone)-2-yl]methylpiperidine]
protection of neurons by cell morphology [2]: neurons were protected by the addition of donepezil before OGD treatment

CCN(C)C(=O)Oc1cccc([C@H](C)N(C)C)c1 [Rivastigmine]
inhibition of LDH release (neurocyte protective effect) after OGD [3]: did not show any neurocyte protective effect
